Source: the kinase profiling compilation of Christmann-Franck et al. (2016)

Key:
PIM2 (human) [1] = target: PIM2 (human) (UniProt Q9P1W9); experiment: SelectScreen, TR FRET
PIM1 (human) [2] = target: PIM1 (human) (UniProt P11309); experiment: SelectScreen, TR FRET
DAPK3 (human) = DAPK3 (human) (UniProt O43293); experiment: KINOMEscan competition binding; details: compound 10.0 µM
MAPK10 (human) = MAPK10 (human) (UniProt P53779); experiment: KINOMEscan competition binding; details: compound 10.0 µM
PAK7 (human) = PAK7 (human) (UniProt Q9P286); experiment: KINOMEscan competition binding; details: compound 10.0 µM
PIM2 (human) [3] = target: PIM2 (human) (UniProt Q9P1W9); experiment: KINOMEscan competition binding; details: compound 10.0 µM
LATS2 (human) = LATS2 (human) (UniProt Q9NRM7); experiment: KINOMEscan competition binding; details: compound 10.0 µM
PAK6 (human) = PAK6 (human) (UniProt Q9NQU5); experiment: KINOMEscan competition binding; details: compound 10.0 µM
Sequence of PAK6 (human) (Q9NQU5 whole entry, looked up): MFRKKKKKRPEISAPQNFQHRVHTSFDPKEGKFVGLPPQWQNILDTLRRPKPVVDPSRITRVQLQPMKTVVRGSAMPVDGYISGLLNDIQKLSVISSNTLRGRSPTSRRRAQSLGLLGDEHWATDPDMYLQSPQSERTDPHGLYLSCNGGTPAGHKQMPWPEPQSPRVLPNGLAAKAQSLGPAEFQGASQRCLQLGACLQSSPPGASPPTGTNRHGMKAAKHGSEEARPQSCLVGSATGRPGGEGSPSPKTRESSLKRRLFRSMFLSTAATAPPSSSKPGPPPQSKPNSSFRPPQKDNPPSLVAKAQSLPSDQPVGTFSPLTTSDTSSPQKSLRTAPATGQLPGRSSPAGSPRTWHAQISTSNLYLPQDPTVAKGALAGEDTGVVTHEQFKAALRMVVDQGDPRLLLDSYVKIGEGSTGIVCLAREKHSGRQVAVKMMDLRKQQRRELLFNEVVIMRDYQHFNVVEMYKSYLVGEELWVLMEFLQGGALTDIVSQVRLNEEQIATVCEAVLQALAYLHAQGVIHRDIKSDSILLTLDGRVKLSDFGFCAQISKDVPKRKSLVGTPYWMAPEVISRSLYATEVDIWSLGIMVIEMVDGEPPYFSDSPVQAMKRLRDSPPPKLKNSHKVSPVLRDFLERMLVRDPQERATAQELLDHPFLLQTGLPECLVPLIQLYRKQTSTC

AAK1 (human) = AAK1 (human) (UniProt Q2M2I8); experiment: KINOMEscan competition binding; details: compound 10.0 µM
EPHA3 (human) = EPHA3 (human) (UniProt P29320); experiment: KINOMEscan competition binding; details: compound 10.0 µM
PAK4 (human) = PAK4 (human) (UniProt O96013); experiment: KINOMEscan competition binding; details: compound 10.0 µM
STK16 (human) = STK16 (human) (UniProt O75716); experiment: KINOMEscan competition binding; details: compound 10.0 µM
ACVR2B (human) = ACVR2B (human) (UniProt Q13705); experiment: KINOMEscan competition binding; details: compound 10.0 µM
RIPK4 (human) = RIPK4 (human) (UniProt P57078); experiment: KINOMEscan competition binding; details: compound 10.0 µM
CAMK2B (human) = CAMK2B (human) (UniProt Q13554); experiment: KINOMEscan competition binding; details: compound 10.0 µM
MAP3K7 (human) = MAP3K7 (human) (UniProt O43318); experiment: KINOMEscan competition binding; details: compound 10.0 µM
CSNK2A2 (human) = CSNK2A2 (human) (UniProt P19784); experiment: KINOMEscan competition binding; details: compound 10.0 µM
PIM1 (human) [4] = target: PIM1 (human) (UniProt P11309); experiment: KINOMEscan competition binding; details: compound 10.0 µM
MYLK (human) = MYLK (human) (UniProt Q15746); experiment: KINOMEscan competition binding; details: compound 10.0 µM
GAK (human) = GAK (human) (UniProt O14976); experiment: KINOMEscan competition binding; details: compound 10.0 µM
Sequence of GAK (human) (O14976 whole entry, looked up): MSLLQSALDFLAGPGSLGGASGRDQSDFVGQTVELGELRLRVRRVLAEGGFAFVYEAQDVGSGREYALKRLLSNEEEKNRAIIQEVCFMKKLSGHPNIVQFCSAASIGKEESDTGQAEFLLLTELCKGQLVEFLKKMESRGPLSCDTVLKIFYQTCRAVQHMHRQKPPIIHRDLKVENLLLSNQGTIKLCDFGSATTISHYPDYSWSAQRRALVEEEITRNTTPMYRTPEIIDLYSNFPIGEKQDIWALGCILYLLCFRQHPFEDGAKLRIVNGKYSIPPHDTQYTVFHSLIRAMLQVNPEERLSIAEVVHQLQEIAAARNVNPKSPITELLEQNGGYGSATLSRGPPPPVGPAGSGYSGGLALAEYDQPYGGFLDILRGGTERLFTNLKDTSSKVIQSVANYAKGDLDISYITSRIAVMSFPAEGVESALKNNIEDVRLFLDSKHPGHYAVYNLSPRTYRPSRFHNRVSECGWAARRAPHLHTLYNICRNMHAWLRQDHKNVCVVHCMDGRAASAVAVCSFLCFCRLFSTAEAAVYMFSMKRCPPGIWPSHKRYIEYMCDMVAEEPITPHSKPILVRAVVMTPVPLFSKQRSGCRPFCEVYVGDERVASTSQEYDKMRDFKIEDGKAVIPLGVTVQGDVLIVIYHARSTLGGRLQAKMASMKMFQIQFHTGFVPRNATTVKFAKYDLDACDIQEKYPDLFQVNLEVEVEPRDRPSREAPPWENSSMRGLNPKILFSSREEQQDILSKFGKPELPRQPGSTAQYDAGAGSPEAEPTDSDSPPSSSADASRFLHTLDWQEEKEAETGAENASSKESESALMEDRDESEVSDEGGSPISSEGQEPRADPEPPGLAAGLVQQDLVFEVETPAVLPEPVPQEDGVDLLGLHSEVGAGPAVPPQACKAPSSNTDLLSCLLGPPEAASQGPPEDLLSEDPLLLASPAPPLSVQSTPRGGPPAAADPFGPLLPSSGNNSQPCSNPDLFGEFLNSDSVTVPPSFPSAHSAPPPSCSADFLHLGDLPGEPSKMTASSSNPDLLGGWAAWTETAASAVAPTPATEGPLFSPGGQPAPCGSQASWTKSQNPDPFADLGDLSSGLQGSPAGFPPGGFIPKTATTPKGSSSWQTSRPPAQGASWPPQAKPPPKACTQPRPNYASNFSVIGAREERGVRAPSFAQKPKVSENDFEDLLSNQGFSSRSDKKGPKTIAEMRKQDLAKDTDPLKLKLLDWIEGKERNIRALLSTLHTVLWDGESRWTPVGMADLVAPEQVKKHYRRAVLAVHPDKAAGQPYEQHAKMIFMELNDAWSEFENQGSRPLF

PHKG2 (human) = PHKG2 (human) (UniProt P15735); experiment: KINOMEscan competition binding; details: compound 10.0 µM
TGFBR2 (human) = TGFBR2 (human) (UniProt P37173); experiment: KINOMEscan competition binding; details: compound 10.0 µM
STK17B (human) = STK17B (human) (UniProt O94768); experiment: KINOMEscan competition binding; details: compound 10.0 µM
MAPK8 (human) = MAPK8 (human) (UniProt P45983); experiment: KINOMEscan competition binding; details: compound 10.0 µM
PLK4 (human) = PLK4 (human) (UniProt O00444); experiment: KINOMEscan competition binding; details: compound 10.0 µM
CSK (human) = CSK (human) (UniProt P41240); experiment: KINOMEscan competition binding; details: compound 10.0 µM
TAOK1 (human) = TAOK1 (human) (UniProt Q7L7X3); experiment: KINOMEscan competition binding; details: compound 10.0 µM
CAMK1D (human) = CAMK1D (human) (UniProt Q8IU85); experiment: KINOMEscan competition binding; details: compound 10.0 µM
Sequence of CAMK1D (human) (Q8IU85 whole entry, looked up): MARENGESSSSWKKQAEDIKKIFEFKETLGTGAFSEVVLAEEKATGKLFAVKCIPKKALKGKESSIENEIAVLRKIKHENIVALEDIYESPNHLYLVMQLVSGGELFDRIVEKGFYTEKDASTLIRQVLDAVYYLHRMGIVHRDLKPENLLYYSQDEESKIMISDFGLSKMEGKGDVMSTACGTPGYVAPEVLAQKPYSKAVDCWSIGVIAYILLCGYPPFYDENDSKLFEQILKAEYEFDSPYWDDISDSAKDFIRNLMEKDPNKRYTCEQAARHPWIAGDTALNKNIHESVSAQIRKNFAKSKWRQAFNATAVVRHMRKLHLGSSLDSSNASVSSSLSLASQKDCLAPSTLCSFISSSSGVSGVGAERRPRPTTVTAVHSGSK

DDR1 (human) = DDR1 (human) (UniProt Q08345); experiment: KINOMEscan competition binding; details: compound 10.0 µM
TAOK3 (human) = TAOK3 (human) (UniProt Q9H2K8); experiment: KINOMEscan competition binding; details: compound 10.0 µM
Sequence of TAOK3 (human) (Q9H2K8 whole entry, looked up): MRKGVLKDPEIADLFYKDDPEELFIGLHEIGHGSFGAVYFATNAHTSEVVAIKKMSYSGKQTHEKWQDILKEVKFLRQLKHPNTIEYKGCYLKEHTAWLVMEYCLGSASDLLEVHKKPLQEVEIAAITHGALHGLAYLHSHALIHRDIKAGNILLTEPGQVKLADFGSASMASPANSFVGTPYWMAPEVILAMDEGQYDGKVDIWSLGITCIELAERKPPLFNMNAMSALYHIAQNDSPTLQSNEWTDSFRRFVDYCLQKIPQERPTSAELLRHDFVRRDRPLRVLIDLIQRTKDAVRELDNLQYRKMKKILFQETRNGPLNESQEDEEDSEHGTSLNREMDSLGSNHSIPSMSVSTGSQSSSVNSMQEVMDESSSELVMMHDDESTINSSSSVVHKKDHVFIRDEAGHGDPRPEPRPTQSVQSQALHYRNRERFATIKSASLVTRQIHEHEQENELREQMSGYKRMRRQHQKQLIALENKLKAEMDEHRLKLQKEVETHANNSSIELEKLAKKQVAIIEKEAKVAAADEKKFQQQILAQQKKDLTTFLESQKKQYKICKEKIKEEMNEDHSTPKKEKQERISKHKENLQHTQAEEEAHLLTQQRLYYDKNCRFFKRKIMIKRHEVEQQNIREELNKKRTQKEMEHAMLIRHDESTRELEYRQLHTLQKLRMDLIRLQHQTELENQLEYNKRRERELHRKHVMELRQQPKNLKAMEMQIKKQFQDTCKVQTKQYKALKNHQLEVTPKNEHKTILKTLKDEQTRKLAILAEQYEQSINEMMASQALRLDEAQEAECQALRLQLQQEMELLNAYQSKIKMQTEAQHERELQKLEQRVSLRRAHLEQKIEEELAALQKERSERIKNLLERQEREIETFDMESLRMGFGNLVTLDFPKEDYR

HIPK1 (human) = HIPK1 (human) (UniProt Q86Z02); experiment: KINOMEscan competition binding; details: compound 10.0 µM
CLK2 (human) = CLK2 (human) (UniProt P49760); experiment: KINOMEscan competition binding; details: compound 10.0 µM
DAPK2 (human) = DAPK2 (human) (UniProt Q9UIK4); experiment: KINOMEscan competition binding; details: compound 10.0 µM
[5] = target: TYK2 JH2 pseudokinase (human) (UniProt P29597); experiment: KINOMEscan competition binding; details: compound 10.0 µM
DAPK1 (human) = DAPK1 (human) (UniProt P53355); experiment: KINOMEscan competition binding; details: compound 10.0 µM
CAMK1 (human) = CAMK1 (human) (UniProt Q14012); experiment: KINOMEscan competition binding; details: compound 10.0 µM
TTK (human) = TTK (human) (UniProt P33981); experiment: KINOMEscan competition binding; details: compound 10.0 µM
Sequence of TTK (human) (P33981 whole entry, looked up): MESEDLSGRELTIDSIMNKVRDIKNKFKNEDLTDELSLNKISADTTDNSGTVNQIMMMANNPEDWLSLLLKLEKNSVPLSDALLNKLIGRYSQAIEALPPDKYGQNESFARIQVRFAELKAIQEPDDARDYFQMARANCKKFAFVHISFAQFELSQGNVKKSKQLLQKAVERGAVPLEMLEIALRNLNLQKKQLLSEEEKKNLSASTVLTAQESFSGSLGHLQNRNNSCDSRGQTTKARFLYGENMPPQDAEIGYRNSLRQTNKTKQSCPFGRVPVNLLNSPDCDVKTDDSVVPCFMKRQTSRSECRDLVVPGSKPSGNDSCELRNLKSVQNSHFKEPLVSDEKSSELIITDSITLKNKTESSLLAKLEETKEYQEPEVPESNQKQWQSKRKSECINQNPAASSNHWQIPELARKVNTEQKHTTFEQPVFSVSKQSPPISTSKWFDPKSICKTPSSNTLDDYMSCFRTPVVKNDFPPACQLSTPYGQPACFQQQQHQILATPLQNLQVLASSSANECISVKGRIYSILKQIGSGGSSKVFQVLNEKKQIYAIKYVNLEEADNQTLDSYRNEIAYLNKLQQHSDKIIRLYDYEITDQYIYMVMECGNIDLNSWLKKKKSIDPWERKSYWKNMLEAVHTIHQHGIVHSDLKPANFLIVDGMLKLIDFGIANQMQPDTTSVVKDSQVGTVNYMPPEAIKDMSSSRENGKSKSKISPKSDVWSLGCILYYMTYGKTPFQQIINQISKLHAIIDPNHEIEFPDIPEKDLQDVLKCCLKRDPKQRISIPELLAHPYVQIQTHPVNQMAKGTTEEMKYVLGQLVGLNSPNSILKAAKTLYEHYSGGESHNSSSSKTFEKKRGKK

PIM3 (human) = PIM3 (human) (UniProt Q86V86); experiment: KINOMEscan competition binding; details: compound 10.0 µM
MAP2K3 (human) = MAP2K3 (human) (UniProt P46734); experiment: KINOMEscan competition binding; details: compound 10.0 µM
STK17A (human) = STK17A (human) (UniProt Q9UEE5); experiment: KINOMEscan competition binding; details: compound 10.0 µM
GSK3A (human) = GSK3A (human) (UniProt P49840); experiment: KINOMEscan competition binding; details: compound 10.0 µM

Sequence of PIM1 (human) (P11309 whole entry, looked up): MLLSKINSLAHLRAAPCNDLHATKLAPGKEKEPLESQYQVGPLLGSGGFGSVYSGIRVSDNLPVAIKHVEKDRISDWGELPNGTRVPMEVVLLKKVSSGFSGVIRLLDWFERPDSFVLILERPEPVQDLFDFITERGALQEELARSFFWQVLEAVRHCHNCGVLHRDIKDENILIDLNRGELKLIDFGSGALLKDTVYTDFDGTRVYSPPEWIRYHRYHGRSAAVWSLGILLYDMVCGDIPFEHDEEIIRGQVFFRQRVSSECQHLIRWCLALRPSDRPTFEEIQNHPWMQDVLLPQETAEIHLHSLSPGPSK
Sequence of PIM2 (human) (Q9P1W9 whole entry, looked up): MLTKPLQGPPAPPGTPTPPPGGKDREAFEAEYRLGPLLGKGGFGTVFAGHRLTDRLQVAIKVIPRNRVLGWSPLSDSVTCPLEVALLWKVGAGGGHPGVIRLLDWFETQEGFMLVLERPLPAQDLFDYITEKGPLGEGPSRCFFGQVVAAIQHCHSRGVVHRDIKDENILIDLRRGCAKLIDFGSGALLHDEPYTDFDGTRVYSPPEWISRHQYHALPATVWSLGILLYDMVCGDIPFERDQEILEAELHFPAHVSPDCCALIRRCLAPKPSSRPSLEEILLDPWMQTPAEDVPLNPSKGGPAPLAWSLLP

In the case of `Cc1cn(-c2cc(NC(=O)c3cccc4cc(-c5ccc(/C=C6\SC(=N)NC6=O)o5)ccc34)cc(C(F)(F)F)c2)cn1`, the IC50 (PIM2 (human) [1]) is reported as 0.662 µM, the IC50 (PIM1 (human) [2]) is reported as 5.05 µM and the kinase still bound, per cent of control (DAPK3 (human)) is reported as 15%. The kinase still bound, per cent of control (MAPK10 (human)) was 16%, the kinase still bound, per cent of control (PAK7 (human)) was 34% and the kinase still bound, per cent of control (PIM2 (human) [3]) was 0.5%. It also gave a kinase still bound, per cent of control (LATS2 (human)) of 31%, a kinase still bound, per cent of control (PAK6 (human)) of 30% and a kinase still bound, per cent of control (AAK1 (human)) of 26%. It also gave a kinase still bound, per cent of control (EPHA3 (human)) of 32%, a kinase still bound, per cent of control (PAK4 (human)) of 29% and a kinase still bound, per cent of control (STK16 (human)) of 22%. The kinase still bound, per cent of control (ACVR2B (human)) was 24%, the kinase still bound, per cent of control (RIPK4 (human)) was 1% and the kinase still bound, per cent of control (CAMK2B (human)) was 29%. For the same compound, the kinase still bound, per cent of control (MAP3K7 (human)) was 13%, the kinase still bound, per cent of control (CSNK2A2 (human)) was 34% and the kinase still bound, per cent of control (PIM1 (human) [4]) was 1.8%. For the same compound, the kinase still bound, per cent of control (MYLK (human)) was 21%, the kinase still bound, per cent of control (GAK (human)) was 28% and the kinase still bound, per cent of control (PHKG2 (human)) was 29%. The kinase still bound, per cent of control (TGFBR2 (human)) was 11%, the kinase still bound, per cent of control (STK17B (human)) was 0.6% and the kinase still bound, per cent of control (MAPK8 (human)) was 14%. It also gave a kinase still bound, per cent of control (PLK4 (human)) of 1%, a kinase still bound, per cent of control (CSK (human)) of 30% and a kinase still bound, per cent of control (TAOK1 (human)) of 5.8%. The kinase still bound, per cent of control (CAMK1D (human)) was 29%, the kinase still bound, per cent of control (DDR1 (human)) was 22% and the kinase still bound, per cent of control (TAOK3 (human)) was 5.6%. The kinase still bound, per cent of control (HIPK1 (human)) was 0.15%, the kinase still bound, per cent of control (CLK2 (human)) was 21% and the kinase still bound, per cent of control (DAPK2 (human)) was 7.1%. It also gave a kinase still bound, per cent of control [5] of 2.6%, a kinase still bound, per cent of control (DAPK1 (human)) of 32% and a kinase still bound, per cent of control (CAMK1 (human)) of 20%. The kinase still bound, per cent of control (TTK (human)) was 18%, the kinase still bound, per cent of control (PIM3 (human)) was 1.9% and the kinase still bound, per cent of control (MAP2K3 (human)) was 20%. For the same compound, the kinase still bound, per cent of control (STK17A (human)) was 2.4% and the kinase still bound, per cent of control (GSK3A (human)) was 32%.
